Test system: UTI
Assay: Clinical course of UTI (occurrence, relapse, symptoms) in treated women
Format: in vivo, human
Details: Example 4: person, antibiotic received twice, before treatment with the composition
Procedure: One wheelchair-bound person, with recurrent UTI (UTI every week) was treated according to an embodiment of the invention. Prior to the treatment, the urine of the person was tested using bacteria test strips (NITRISTIC®, RAERAD Products, Sweden) following the instructions from the manufacturer. […] The person was given a composition with 1 g calcium carbonate (pH-KALK, pH Balans AB, Sweden) together with 2 g D-mannose (DM, BECKMAN-KENKO GMBH, Germany) or 1 g citric acid (SANTA MARIA AB, Sweden) together with 2 g D-mannose (DM, BECKMAN-KENKO GMBH, Germany). The compositions were taken in an alternating administration pattern 5 times per day (see Table 2 for details). The initial treatment lasted for 4 days. […] After the initial treatment, the person continued with the treatment to prevent UTI according to Table 2 alternating pH three times a day for five months. […] After discontinuing the treatment, the person relapsed with UTI within 3 weeks.
Prior to the treatment, the urine was tested using bacteria test strips (NITRISTIC®, RAERAD Products, Sweden) following the instructions from the manufacturer.
The person was then treated according to an embodiment of the invention (see Table 4 for details). […] Furthermore the bacteria test strips were negative.

## CC(C)(C)C(=O)OCOC(=O)[C@@H]1N2C(=O)[C@@H](/N=C/N3CCCCCC3)[C@H]2SC1(C)C [SELEXID]
  result of antibiotic treatment against UTI: no apparent results

From US10525069B2, “Treatment of urinary tract infection” (BIOMEDICALS SWEDEN AB, priority 2014, dated 2020)
